The record followed here is ChEMBL document CHEMBL1201862, “PubChem BioAssay data set” (2004).

Broadly, the EC50 is the concentration needed to bring the measured effect to its halfway point. As usually defined, the AC50 is the midpoint of the concentration-response curve, whichever way the signal moves. A word on the IC50: it is the concentration at which inhibition is half-maximal.

One experiment has as its target T1, Protein RecA (Mycobacterium tuberculosis, UniProt P9WHJ3).
T1 sequence (P9WHJ3 whole entry): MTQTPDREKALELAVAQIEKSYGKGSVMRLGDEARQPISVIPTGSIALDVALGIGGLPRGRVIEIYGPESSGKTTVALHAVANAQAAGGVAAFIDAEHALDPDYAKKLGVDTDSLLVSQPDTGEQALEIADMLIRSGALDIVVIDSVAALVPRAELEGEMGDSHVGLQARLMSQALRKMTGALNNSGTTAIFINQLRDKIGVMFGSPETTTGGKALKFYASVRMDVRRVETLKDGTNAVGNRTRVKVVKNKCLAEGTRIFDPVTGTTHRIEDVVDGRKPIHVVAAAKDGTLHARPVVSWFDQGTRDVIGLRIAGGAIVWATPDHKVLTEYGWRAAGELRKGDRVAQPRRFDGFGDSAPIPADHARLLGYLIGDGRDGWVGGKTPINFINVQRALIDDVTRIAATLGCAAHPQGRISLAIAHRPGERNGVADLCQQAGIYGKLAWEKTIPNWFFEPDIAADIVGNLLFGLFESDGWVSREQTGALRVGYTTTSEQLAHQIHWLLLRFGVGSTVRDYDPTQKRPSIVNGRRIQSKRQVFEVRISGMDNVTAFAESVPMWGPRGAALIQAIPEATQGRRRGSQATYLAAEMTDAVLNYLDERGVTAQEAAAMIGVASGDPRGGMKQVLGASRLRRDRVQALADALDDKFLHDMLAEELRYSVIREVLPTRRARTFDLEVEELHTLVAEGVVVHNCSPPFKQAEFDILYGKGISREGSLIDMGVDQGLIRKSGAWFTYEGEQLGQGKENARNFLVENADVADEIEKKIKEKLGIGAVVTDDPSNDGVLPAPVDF
Briefly: Fluorescence Cell-Free Homogeneous Dose Retest to Identify Inhibitors of RecA-Intein Splicing Activity. [Related pubchem assays (depositor defined):AID2097, AID2223, AID489010, AID492950]. The experiment is classed as functional.

Experiment [1] concerns the target T2, Replicative DNA helicase DnaB (Mycobacterium tuberculosis, UniProt P9WMR3).
T2 sequence (P9WMR3 whole entry): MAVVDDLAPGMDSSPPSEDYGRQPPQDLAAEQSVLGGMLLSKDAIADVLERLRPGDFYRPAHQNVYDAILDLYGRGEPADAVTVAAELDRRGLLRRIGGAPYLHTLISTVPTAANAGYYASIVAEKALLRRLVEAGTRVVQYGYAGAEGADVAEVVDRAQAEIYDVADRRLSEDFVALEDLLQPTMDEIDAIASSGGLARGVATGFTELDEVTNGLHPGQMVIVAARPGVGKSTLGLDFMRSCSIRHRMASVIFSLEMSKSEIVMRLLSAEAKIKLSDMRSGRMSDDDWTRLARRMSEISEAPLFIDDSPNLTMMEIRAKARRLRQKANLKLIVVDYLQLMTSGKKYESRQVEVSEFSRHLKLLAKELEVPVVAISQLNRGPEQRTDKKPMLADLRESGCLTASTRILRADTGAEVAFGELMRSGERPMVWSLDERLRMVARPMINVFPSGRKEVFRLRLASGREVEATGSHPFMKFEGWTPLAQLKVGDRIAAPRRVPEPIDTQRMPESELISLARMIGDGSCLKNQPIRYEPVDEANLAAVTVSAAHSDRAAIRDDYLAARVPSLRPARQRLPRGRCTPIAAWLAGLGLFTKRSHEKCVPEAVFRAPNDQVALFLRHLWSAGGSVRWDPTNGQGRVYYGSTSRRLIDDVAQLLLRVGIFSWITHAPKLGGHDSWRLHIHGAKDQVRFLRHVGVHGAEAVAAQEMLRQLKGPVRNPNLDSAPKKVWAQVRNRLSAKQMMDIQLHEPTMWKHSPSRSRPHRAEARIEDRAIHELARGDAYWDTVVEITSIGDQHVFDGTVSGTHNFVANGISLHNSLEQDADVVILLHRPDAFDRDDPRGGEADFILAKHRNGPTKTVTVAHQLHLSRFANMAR
The experiment can be described thus: DnaB intein splicing inhibitors, dose response, biochemical, cell-free fluorescence (AID 449749). The class given is functional.

A short description of experiment [2]: toxicity toward HepG2 liver cells – cell-based, plate reader, cherry-pick, antagonist series, cytotoxicity control, dose response (AID 743416). The experiment is classed as functional.
Experiment [3] can be described thus: A549 cell cytotoxicity, dose response, cytotoxicity control, plate reader, cherry-pick, antagonist series (AID 743412). The class given is functional, cell-based.
Experiment [4] can be described thus: blockade of melanocortin 4 receptor signaling – cell-based, plate reader, cherry pick, counter-screen for LGR2 antagonist project, dose response (AID 743444).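 Also: transfected HEK 293 cells stimulated with alpha-MSH peptide; potency of inhibitors of the alpha-MSH evoked signal.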 The experiment is classed as functional. Background: Counterscreens check selectivity or assay interference.
A short description of experiment [5]: viability loss in HEK293 cells – cell-based, plate reader, cherry-picked samples, cytotoxicity control, dose response (AID 743446). The experiment is classed as functional.
Experiment [6] deals with T3, Tyrosyl-DNA phosphodiesterase 2 (Homo sapiens, UniProt O95551).
T3 sequence (O95551 whole entry): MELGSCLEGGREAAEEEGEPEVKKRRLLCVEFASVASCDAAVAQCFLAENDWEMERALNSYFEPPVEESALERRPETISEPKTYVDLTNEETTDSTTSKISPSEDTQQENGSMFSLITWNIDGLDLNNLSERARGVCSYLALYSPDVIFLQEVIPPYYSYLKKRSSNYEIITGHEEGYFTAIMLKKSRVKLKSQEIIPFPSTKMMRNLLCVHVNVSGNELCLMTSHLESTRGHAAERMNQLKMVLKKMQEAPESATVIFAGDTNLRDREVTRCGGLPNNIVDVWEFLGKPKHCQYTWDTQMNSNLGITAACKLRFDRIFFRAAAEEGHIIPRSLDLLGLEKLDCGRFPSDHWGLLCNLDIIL
The experiment can be described thus: potency against TDP2 phosphodiesterase activity – biochemical, epi absorbance, IC50, dose response (AID 743297).

SMILES strings stand for the structures. Calls of active or inactive are those of the source. Rule as the data show it, for most assays here: actives have a measured AC50 and inactives only a lower limit. Bounds are passed on as bounds.

For `O=c1[nH]c(N2CCOCC2)cc2ccccc12`, the EC50 at Protein RecA was > 380 µM (inconclusive). Moreover, the AC50 in experiment [1] was > 120 µM (inactive).

Take `O=[N+]([O-])c1ccc(Sc2nc3ccccc3o2)c([N+](=O)[O-])c1`: the AC50 was 6.16 µM (active) in experiment [2]; 6.63 µM (active) in experiment [3]; 28.8 µM (active) in experiment [4]; 2.05 µM (active) in experiment [1]; 8.49 µM (active) in experiment [5]. Besides, the concentration for a half-maximal effect (EC50) at Protein RecA is 1.5 µM (active).

Take `O=C1c2ccccc2C(=O)C12OC2c1cccc2ccccc12` (centres undefined): in experiment [6], the IC50 is 5.07 µM (active).

Turning to `CCC(COC)Oc1cc(NCc2ccccc2)c2ncn(C(C)C)c2c1` (centres undefined), the AC50 in experiment [2] was 19.6 µM (active); in experiment [3], 26.1 µM (active); in experiment [4], 33.5 µM (active); in experiment [5], 30.4 µM (active). Moreover, the IC50 in experiment [6] is > 42.8 µM (inactive).
